“Also recorded” adds a separate entry of the source.
How the values were obtained:
[1] = system: repeated implantation failure (RIF) patients with elevated Th1/Th2 cell ratios; test: Tacrolimus treatment of repeated implantation failure (RIF) patients during IVF/ET, prospective cohort study (Example 1); assay type: in vivo, human
Method: This was a prospective cohort study of treatment for RIF patients (n=42) with elevated peripheral blood Th1 (CD4^+/IFN-γ^+)/Th2 (CD4^+/IL-4^+) cell ratios at the Sugiyama clinic between November 2011 and October 2013. Twenty-five patients were treated with tacrolimus (treatment group) and 17 received no treatment (control group).
Treatment group continuously received tacrolimus from two days before embryo transfer until the day of the pregnancy test, for a total of 16 days. The daily dose of tacrolimus (1-3 mg) was determined based on the degree of the Th1/Th2 cell ratio.
A total of 81 patients with a history of 5 or more RIF after IVF/ET cycles were consecutively enrolled in the study at the division of Reproductive Medicine, the Sugiyama clinic, Tokyo, Japan, between November 2011 and February 2014. This study was approved by the Institutional Review Board of the Sugiyama Clinic. A signed informed consent form was obtained from all patients prior to entering the study.
Study patients were assessed by transvaginal ultrasound, hysterosalpingography, and hysteroscopy before the index ART cycle. None of the participants had submucosal fibroids, endometrial polyps, intrauterine adhesions, congenital anomalies of uterus or hydrosalpinges. In addition, none of the women had any history of autoimmune disease. Pregnant women or women with chronic medical or inflammatory conditions were excluded. Women who miscarried in a former IVF cycle or had IVF cycles, or received vaccination in 3 months were excluded in the study. Women with acquired or inherited thrombophilia were also excluded in this study.
Blood was drawn between cycle day (CD) 5 and 10 prior to the index ART cycle for the evaluation of a baseline value of Th1/Th2 cell ratios. Forty-two patients had elevated Th1/Th2 cell ratio (≥10.3) and 39 had normal Th1/Th2 cell ratio (≤10.3). […] Blood was drawn between CD5 and CD10 of the menstrual cycle. A Th1/Th2 cell ratio equal to 10.3 or above was classified as an elevated Th1/Th2 cell ratio, which was determined by the mean plus one standard deviation of Th1/Th2 cell ratio levels.
For the evaluation of a baseline value of Th1/Th2 cell ratios, total 10 ml of venous blood was obtained. Th1 and Th2 cells were determined by detecting the intracellular interferon (IFN)-γ and IL-4 production.
The specific staining of lymphocytes was performed by incubating whole blood with anti-CD4-PC5 or anti-CD8-PC5-conjugated monoclonal antibodies (mAbs) (Beckman Coulter, Fullerton, Calif, USA). The red blood cells (RBCS) were then removed by lysis (FACS Lysing solution; Becton Dickinson, BD Biosciences, Franklin Lake. N.J., USA) and the lymphocytes were analyzed using flow cytometry (FACSCalibur; Becton Dickson). After surface staining of the activated whole blood samples with anti-CD4-PC5 conjugated mAbs, RBC lysis and specific intracellular staining using FASTIMMUNE™ IFN-γ-FITC/IL-4-PE (Becton Dickinson) were subsequently performed according to the manufacturer's instructions. Th1 cells were defined as CD4^+ lymphocytes with intracellular IFN-γ but without IL-4. Th2 cells were detected as CD4^+ lymphocytes with intracellular IL-4 but without IFN-γ. The ratio of IFN-γ to IL-4 positive Th cells was expressed as the Th1/Th2 cell ratio.
In 42 patients with elevated Th1/Th2 cytokine ratios (equal or above 10.3), 25 of them were treated with tacrolimus (PROGRAF®, Astellas Pharma, Tokyo; treatment group), and the others (n=17) were not treated (control group) during the index IVF/ET cycles. The patients in the treatment group began tacrolimus two days prior to ET and continued until the day of pregnancy test, for a total of 16 days. […]

[2] = system: infertilitas patients with three or more consecutive miscarriages, stillbirths, or intrauterine fetal growth retardations; test: Tacrolimus treatment of infertilitas patients from establishment of pregnancy until delivery (Example 2); assay type: in vivo, human
Method: These patients were a group of patients for whom clear findings of abnormality related to infertility were not recognized with a serological examination that had been performed in advance.
The patients were evaluated through a transvaginal ultrasound examination, a Fallopian tube patency test, and hysteroscopy before an index ART cycle. Among the participants, no one had submucosal myoma, endometrial polyps, intrauterine adhesion, congenital abnormalities in the uterus, or hydrosalpinx. […] Any women who had experienced miscarriage in the previous IVF cycle, who had received an IVF cycle, or who had received vaccination, all within three months, were excluded from the subjects. Any women with acquired or congenital thrombophilia were excluded from the subjects.
The analysis was carried out according to the method described in Example 1. However, the determination of the Th1/Th2 cell ratio in a patient was carried out immediately after establishment of pregnancy (the day of confirming establishment of pregnancy). The level of the Th1/Th2 cell ratio was determined according to the average value+1 standard deviation method in the same manner as in Example 1, and a Th1/Th2 cell ratio that was equal to 10.3 or higher than that was classified as an increased Th1/Th2 cell ratio.
All of the eleven patients were subjected to treatment with tacrolimus in the same manner as in Example 1, except for the duration of administration. […] The duration of administration of tacrolimus was from the time point immediately after establishment of pregnancy was confirmed by a pregnancy test and the Th1/Th2 cell ratio was checked, until the day of delivery, in all cases.
The treatment was carried out in the same manner as in Example 1.
The analysis was carried out in the same manner as in Example 1.

[3] = 1 mg daily, n = 12, Th1/Th2 cell ratio ≥10.3 and <13.0
[4] = 2 mg daily, n = 8, Th1/Th2 cell ratio ≥13.0 and <15.8
[5] = 3 mg daily, n = 5, Th1/Th2 cell ratio ≥15.8
[6] = treatment group n = 25, tacrolimus 1-3 mg daily for 16 days
[7] = treatment group, 15 newborns, mean ± standard deviation
[8] = treatment group, 15 newborns, mean ± standard deviation, listed as tacrorimus
[9] = infertilitas patients n = 11, tacrolimus 1-3 mg per day from confirmation of pregnancy until delivery

C=CCC1/C=C(\C)CC(C)CC(OC)C2OC(O)(C(=O)C(=O)N3CCCCC3C(=O)OC(/C(C)=C/C3CCC(O)C(OC)C3)C(C)C(O)CC1=O)C(C)CC2OC (stereo not shown) [tacrolimus, 17-Allyl-1,14-dihydroxy-12-[2-(4-hydroxy-3-methoxycyclohexyl)-1-methylvinyl]-23,2 5-dimethoxy-13,19,21,27-tetramethyl-11,28-dioxa-4-azatricyclo[22.3.1.04,9]octacos-18-ene-2,3,10,16-tetraone]
Clinical pregnancy with 1 mg of tacrolimus (%) [1, 3]: 83.3%
Live birth with 1 mg of tacrolimus (%) [1, 3]: 83.3%
Clinical pregnancy With 2 mg of tacrolimus [1, 4]: 50.0%
Live birth With 2 mg of tacrolimus [1, 4]: 37.5%
Clinical pregnancy with 3 mg of tacrolimus [1, 5]: 40.0%
Live birth with 3 mg of tacrolimus [1, 5]: 40.0%
FET success rate relative to reported success rate (39%) of women under 35 ([1]; FET cycle with tacrolimus, 75% versus 2011 CDC report 39%): 1.9 times
Positive hCG (%) ([1]; RIF patients with elevated Th1/Th2 cell ratio, treatment group n = 25, tacrolimus 1-3 mg daily for 16 days from two days before ET): 64%
birth weight (mean±SD) ([1]; newborns of the treatment group, as given in the text): 2,995±400 g
Spontaneous abortion rate (%) ([1]; pregnant patients of the treatment group, one miscarriage at 10 weeks gestation): 6.3%
Side effect from tacrolimus ([1]; treatment group n = 25, 1-3 mg daily for 16 days): no significant side effect; also recorded: no one reported side effect
Clinical pregnancy rate per ET (%) [1, 6]: 64.0%
Live birth rate (%) [1, 6]: 60%
Implantation rate (%) ([1]; treatment group n = 25, tacrolimus 1-3 mg daily for 16 days from two days before ET, 16/35): 45.7%
APGAR score at 1 minutes after birth [1, 7]: 8.3±0.5
APGAR score at 5 minutes after birth [1, 7]: 9.2±0.5
Gestational days to delivery [1, 7]: 279.5 ± 10.6 days
Umbilical cord gas analysis (pH) [1, 7]: 7.2 ± 0.05 pH
Birth weight (gm) ([1]; treatment group, 15 newborns, mean ± standard deviation (Table 4)): 3,021 ± 371 gm
APGAR score at 1 minutes after birth [1, 8]: 8.3 ± 0.5
APGAR score at 5 minutes after birth [1, 8]: 9.2 ± 0.6
Gestational days to delivery [1, 8]: 279.5 ± 10.6 days
Live birth rate of fresh ET (%) ([1]; treatment group, fresh ET (n = 9)): 33.3%
Clinical pregnancy of fresh ET (%) ([1]; treatment group, fresh ET (n = 9), tacrolimus 1-3 mg daily for 16 days): 44.4%
Live birth rate of thawed ET (%) ([1]; treatment group, frozen-thawed ET (n = 16)): 75%
Clinical pregnancy of cryo-thaw ET (%) ([1]; treatment group, frozen-thawed ET (n = 16), tacrolimus 1-3 mg daily for 16 days): 75%
Number of newborns ([1]; women with multiple implantation failures (5 or more) treated with tacrolimus): 15
APGAR Score 1 minute ([2]; Full term birth (8 babies)): 8.0 ± 1.0
APGAR Score 5 minute ([2]; Full term birth (8 babies)): 9.0 ± 0.5
Birth weight (gm) ([2]; Full term birth (8 babies)): 3149 ± 234 gm
Complications of mother ([2]; Full term birth (8 babies)): 0
Complications of newborn baby ([2]; Full term birth (8 babies)): 0
Number of gestational days ([2]; Full term birth (8 babies)): 279.3 ± 6.0 days
Umbilical cord blood pH ([2]; Full term birth (8 babies)): 7.3 ± 0.12
APGAR Score 1 minute ([2]; Premature birth case): 6
APGAR Score 5 minute ([2]; Premature birth case): 8
Birth weight (gm) ([2]; Premature birth case): 748 gm
Number of gestational days ([2]; Premature birth case): 208 days
Umbilical cord blood pH ([2]; Premature birth case): 7.304
Complications of newborn baby ([2]; Premature birth case, Low birth weight baby): 1 (Low birth
Complications of mother ([2]; Premature birth case, Pregnancy-induced hypertension): 1 (Pregnancy-
Number of newborn babies (n): Miscarriage [2, 9]: 2 n
Number of newborn babies (n): Premature birth [2, 9]: 1 n

Source: patent publication US12576070B2, “Medicine for improving state of pregnancy, and use thereof” (priority 2014, dated 2026)
